Where a name gives a salt, the structure may show the parent alone.
What was measured:
[1] = Solid stability test of crystal (storage, content by HPLC, appearance); type: physicochemical; design: key to Change of Appearance: when there was no change in appearance, an evaluation was (−); when there was a little change observed, it was (±); details: for Survival Rate: vs standard stored at −40° C.; for Change in the appearance / Solid stability, decrease in content: all storage conditions, two or four weeks
Description: About 10 mg of crystal was correctly weighed in the 2-mL glass container with a stopper made of polyethylene.
After closing the glass container, it was rolled with parafilm, and stored for two or four weeks at 40° C. or 60° C. The sample stored at 40° C. is called 40° C. with airtight stopper, and the sample saved at 60 C. is called 60° C. with airtight stopper.
Also samples were reserved with the glass container opened at 40° C., relative humidity 89%, or 60° C., for two weeks or four weeks. The sample stored at 40° C. and relative humidity 89% is called 40° C. R.H.89%, and the sample stored at 60° C. is called 60° C. Opened.
Using samples with airtight stopper stored at −40° C. as a standard, the content was measured with the absolute calibration method by the HPLC method under the following conditions:
In addition, when there was no change in appearance, an evaluation was (−), and when there was a little change observed, it was (±).
Column: CAPCELL PAK C18 AQ (3 micrometer 3.0×150 mm)
Column temperature: 50° C.
UV detection wavelength: 231 nm
[A] A mixed solution containing ammonium formate (10 mmol/L) and magnesium chloride (10 mmol/L)

[2] = Confirmatory test for hygroscopicity of crystal (automated water vapor sorption, DVS); type: physicochemical
Description: After completion of the drying, relative humidity was continuously changed at intervals of 5% in a range from 0% to 95% and the amount of water vapor adsorption and desorption of the sample was measured with automated water vapor sorption apparatus: DVS Advantage (Surface Measurement Systems).

[3] = 40° C. R.H. 89%, opened, 2 weeks
[4] = 40° C. R.H. 89%, opened, 4 weeks
[5] = 60° C. airtight stopper, 2 weeks
[6] = 60° C. airtight stopper, 4 weeks
[7] = 40° C. airtight stopper, 4 weeks

Row | Structure (SMILES) | Change of Appearance [1, 3] | Survival Rate [1, 3] [%] | Change of Appearance [1, 4] | Survival Rate [1, 4] [%] | Change of Appearance ([1]; 60° C. Opened, 2 weeks) | Survival Rate ([1]; 60° C. Opened, 2 weeks) [%] | Change of Appearance ([1]; 60° C. Opened, 4 weeks) | Survival Rate ([1]; 60° C. Opened, 4 weeks) [%] | Change of Appearance [1, 5] | Survival Rate [1, 5] [%] | Change of Appearance [1, 6] | Survival Rate [1, 6] [%] | Change in the appearance [1] | Solid stability, decrease in content [1] | Hygroscopicity (in words) ([2]; 0% to 95% relative humidity at 25° C.) | Amount of the maximum moisture absorption ([2]; range of 0% to 95% of relative humidity at 25° C.) | Change of Appearance [1, 7] | Survival Rate [1, 7] [%]
1 | CC(C)(NC(=O)C1=C(O)[C@@H]2Oc3c(O)ccc4c3[C@@]23CCN(CC2CC2)[C@H](C4)[C@]3(O)C1)c1nc(-c2ccccc2)no1 [p-toluenesulfonic acid salt hydrate (form II)] | − | 100.9 | ± | 100.1 | − | 100.7 | ± | 100.4 | − | 102.0 | ± | 100.6 | no change in the appearance | stable |  |  |  | 
2 | CC(C)(NC(=O)C1=C(O)[C@@H]2Oc3c(O)ccc4c3[C@@]23CCN(CC2CC2)[C@H](C4)[C@]3(O)C1)c1nc(-c2ccccc2)no1 [p-toluenesulfonic acid salt hydrate (form I)] | − | 101.2 | ± | 98.4 | − | 100.5 | ± | 98.5 | − | 100.8 | ± | 99.2 | no change in the appearance | stable |  |  |  | 
3 | CC(C)(NC(=O)C1=C(O)[C@@H]2Oc3c(O)ccc4c3[C@@]23CCN(CC2CC2)[C@H](C4)[C@]3(O)C1)c1nc(-c2ccccc2)no1 [p-toluenesulfonic acid salt (non-solvate)] | − | 99.3 | − | 100.5 | − | 100.3 | − | 98.8 | − | 99.9 | − | 99.6 | no change in the appearance | stable | hygroscopicity was little observed | less than 1.2% | − | 98.0

Reference: patent US9951082B2, “Crystal of 6,7-unsaturated-7-carbamoyl morphinan derivative and method for producing the same” (Shionogi & Co., Ltd., priority 2010, dated 2018)
